# From BindingDB's records for doi:10.1124/jpet.105.083436 (Louisiana State University, 2005)
# Biological target: Nociceptin receptor (Homo sapiens, UniProt P41146)
# Sequence (P41146 whole entry): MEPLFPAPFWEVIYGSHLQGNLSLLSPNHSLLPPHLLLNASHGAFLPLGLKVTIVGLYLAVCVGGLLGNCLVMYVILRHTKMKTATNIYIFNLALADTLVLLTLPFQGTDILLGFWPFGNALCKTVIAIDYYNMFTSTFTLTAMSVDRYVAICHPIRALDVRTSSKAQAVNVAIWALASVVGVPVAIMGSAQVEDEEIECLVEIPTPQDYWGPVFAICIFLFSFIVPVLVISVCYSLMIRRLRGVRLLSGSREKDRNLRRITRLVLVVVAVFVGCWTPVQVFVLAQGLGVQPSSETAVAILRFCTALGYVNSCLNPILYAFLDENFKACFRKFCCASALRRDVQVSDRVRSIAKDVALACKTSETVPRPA
substance,measurement,value
Ac-RYYRWKKKKKKK-NH2,Ki,0.5 nM
